# Values quoted from earlier work, collected in patent US7799756B2, “Processes for stereoselective synthesis of trans ISATX247” (Albany Molecular Research, Inc., priority 2004, dated 2010).
# Experiments:
# [1] = compared to the corresponding cis-isomer
# [2] = compared to the corresponding cis-isomer; remark: listed apart in the source
# [3] = over natural cyclosporins and presently known cyclosporin derivatives
# [4] = phase IIa, kidney transplantation, mixture of cis and trans isomers
Compound,activity on immunosuppression [1],therapeutic index [2],potency [3],clinical trial outcome [4]
trans ISATX247,better activity on immunosuppression,improved therapeutic index,,
"C=CC=CC[C@@H](C)[C@@H](O)C1C(=O)N[C@H](CC)C(=O)N(C)CC(=O)N(C)[C@@H](CC(C)C)C(=O)N[C@H](C(C)C)C(=O)N(C)[C@H](CC(C)C)C(=O)N[C@H](C)C(=O)N[C@@H](C)C(=O)N(C)[C@H](CC(C)C)C(=O)N(C)[C@H](CC(C)C)C(=O)N(C)[C@H](C(C)C)C(=O)N1C (stereo partly drawn) [ISATX247, cyclo {(E,Z)-(2S,3R,4R)-3-hydoxy-4-methyl-2-(methylamino)-6,8-nonadienoyl-L-2-aminobutyryl-N-methyl-glycyl-N -methyl-L-leucyl-L-valyl-N-methyl-L-leucyl-L-alanyl-D-alanyl-N-methyl-L-leucyl-N-methyl-L-leucyl-N-methyl-L-valyl}]",,,enhanced potency,positive results
